The values below come from ChEMBL document CHEMBL2086231, “Novel pleuromutilin derivatives as antibacterial agents: synthesis, biological evaluation and molecular docking studies” (2012).

What all share (assay type): functional
Experiment [1] relates to Staphylococcus aureus. Put plainly: Antibacterial activity against methicillin-sensitive Staphylococcus aureus isolate cpu0211 after 18 to 20 hrs by agar dilution method. On the technique in general: Agar dilution tests growth on a series of plates holding different concentrations.
The test system of experiment [2] is Staphylococcus aureus. The experiment is described as follows: Antibacterial activity against methicillin-sensitive Staphylococcus aureus isolate cpu0587 after 18 to 20 hrs by agar dilution method.
Experiment [3] concerns Staphylococcus aureus. Put plainly: Antibacterial activity against methicillin-sensitive Staphylococcus aureus isolate cpu1044 after 18 to 20 hrs by agar dilution method.
Experiment [4] deals with Staphylococcus aureus. Put plainly: Antibacterial activity against methicillin-sensitive Staphylococcus aureus isolate cpu1344 after 18 to 20 hrs by agar dilution method.
The subject of experiment [5] is Staphylococcus aureus. Put plainly: Antibacterial activity against methicillin-resistant Staphylococcus aureus isolate cpu0446 after 18 to 20 hrs by agar dilution method.
Experiment [6] has as its system Staphylococcus aureus. Put plainly: Antibacterial activity against methicillin-resistant Staphylococcus aureus isolate cpu0887 after 18 to 20 hrs by agar dilution method.
The subject of experiment [7] is Staphylococcus aureus. Put plainly: Antibacterial activity against methicillin-resistant Staphylococcus aureus isolate cpu1098 after 18 to 20 hrs by agar dilution method.
The test system of experiment [8] is Staphylococcus aureus. The experiment is described as follows: Antibacterial activity against methicillin-resistant Staphylococcus aureus isolate cpu3256 after 18 to 20 hrs by agar dilution method.
In experiment [9] the test system is Staphylococcus epidermidis. The experiment is described as follows: Antibacterial activity against methicillin-sensitive Staphylococcus epidermidis isolate cpu0315 after 18 to 20 hrs by agar dilution method.
The test system of experiment [10] is Staphylococcus epidermidis. The experiment is described as follows: Antibacterial activity against methicillin-sensitive Staphylococcus epidermidis isolate cpu0347 after 18 to 20 hrs by agar dilution method.
The test system of experiment [11] is Staphylococcus epidermidis. The experiment is described as follows: Antibacterial activity against methicillin-sensitive Staphylococcus epidermidis isolate cpu2089 after 18 to 20 hrs by agar dilution method.
In experiment [12] the test system is Staphylococcus epidermidis. The experiment is described as follows: Antibacterial activity against methicillin-sensitive Staphylococcus epidermidis isolate cpu1561 after 18 to 20 hrs by agar dilution method.
Experiment [13] deals with Staphylococcus epidermidis. The experiment is described as follows: Antibacterial activity against methicillin-resistant Staphylococcus epidermidis isolate cpu2623 after 18 to 20 hrs by agar dilution method.
For experiment [14], the system named is Staphylococcus epidermidis. The experiment is described as follows: Antibacterial activity against methicillin-resistant Staphylococcus epidermidis isolate cpu3889 after 18 to 20 hrs by agar dilution method.
Experiment [15] has as its system Staphylococcus epidermidis. Put plainly: Antibacterial activity against methicillin-resistant Staphylococcus epidermidis isolate cpu3569 after 18 to 20 hrs by agar dilution method.
The test system of experiment [16] is Staphylococcus epidermidis. Put plainly: Antibacterial activity against methicillin-resistant Staphylococcus epidermidis isolate cpu2736 after 18 to 20 hrs by agar dilution method.
Experiment [17] relates to Staphylococcus aureus. Put plainly: Antibacterial activity against Staphylococcus aureus.
The next experiment has as its system Streptococcus pyogenes. The experiment is described as follows: Antibacterial activity against Streptococcus pyogenes.
Experiment [18] has as its system Staphylococcus epidermidis. The experiment is described as follows: Ratio of amoxicillin MIC to compound MIC for methicillin-sensitive Staphylococcus epidermidis isolate cpu0315.
Experiment [19] relates to Staphylococcus epidermidis. Put plainly: Ratio of amoxicillin MIC to compound MIC for methicillin-sensitive Staphylococcus epidermidis isolate cpu0347.
Experiment [20] deals with Staphylococcus epidermidis. Put plainly: Ratio of amoxicillin MIC to compound MIC for methicillin-sensitive Staphylococcus epidermidis isolate cpu2089.
In experiment [21] the test system is Staphylococcus epidermidis. The experiment is described as follows: Ratio of amoxicillin MIC to compound MIC for methicillin-sensitive Staphylococcus epidermidis isolate cpu1561.
Experiment [22] deals with Staphylococcus aureus. The experiment is described as follows: Ratio of amoxicillin MIC to compound MIC for methicillin-sensitive Staphylococcus aureus isolate cpu0211.
Experiment [23] has as its system Staphylococcus aureus. Put plainly: Ratio of amoxicillin MIC to compound MIC for methicillin-sensitive Staphylococcus aureus isolate cpu0587.
The subject of experiment [24] is Staphylococcus aureus. Put plainly: Ratio of amoxicillin MIC to compound MIC for methicillin-sensitive Staphylococcus aureus isolate cpu1044.
Experiment [25] concerns Staphylococcus aureus. The experiment is described as follows: Ratio of amoxicillin MIC to compound MIC for methicillin-sensitive Staphylococcus aureus isolate cpu1344.
Another experiment deals with Brachyspira pilosicoli. The experiment is described as follows: Antibacterial activity against Brachyspira pilosicoli.

Converted amounts (≈) assume the structure as drawn.

The term MIC denotes the least concentration at which growth counts as inhibited. High values mean a less susceptible organism, low ones a more susceptible organism. For the compound `C=C[C@]1(C)C[C@@H](OC(=O)CSCc2csc(NC(=O)CNCC(=O)OC)n2)[C@]2(C)[C@H](C)CC[C@]3(CCC(=O)[C@H]32)[C@@H](C)[C@@H]1O`, the MIC amounted to 0.25 µg/mL (≈ 0.393 µM) against Staphylococcus aureus [1]; 0.25 µg/mL (≈ 0.393 µM) with Staphylococcus aureus [2]; 0.5 µg/mL (≈ 0.786 µM) in the experiment on Staphylococcus aureus [3]; 0.5 µg/mL (≈ 0.786 µM) with Staphylococcus aureus [4]; 1 µg/mL (≈ 1.57 µM) against Staphylococcus aureus [5]; 1 µg/mL (≈ 1.57 µM) against Staphylococcus aureus [6]. Besides, the MIC against Staphylococcus aureus [7] is 0.5 µg/mL (≈ 0.786 µM); in the experiment with Staphylococcus aureus [8], 0.5 µg/mL (≈ 0.786 µM); in experiment [9], 4 µg/mL (≈ 6.29 µM); in experiment [10], 0.5 µg/mL (≈ 0.786 µM); in experiment [11], 0.25 µg/mL (≈ 0.393 µM); in experiment [12] it was 1 µg/mL (≈ 1.57 µM). The MIC in experiment [13] is 0.5 µg/mL (≈ 0.786 µM); in experiment [14], 1 µg/mL (≈ 1.57 µM); in experiment [15] it was 0.5 µg/mL (≈ 0.786 µM); in experiment [16], 0.5 µg/mL (≈ 0.786 µM).

Regarding `CC1(C)S[C@@H]2[C@H](NC(=O)[C@H](N)c3ccc(O)cc3)C(=O)N2[C@H]1C(=O)O` [AMOXICILLIN], the MIC was determined as 4 µg/mL (≈ 10.9 µM) against Staphylococcus aureus [1]; 2 µg/mL (≈ 5.47 µM) with Staphylococcus aureus [2]; 1 µg/mL (≈ 2.74 µM) in the experiment on Staphylococcus aureus [3]; 1 µg/mL (≈ 2.74 µM) against Staphylococcus aureus [4]; 4 µg/mL (≈ 10.9 µM) in the experiment with Staphylococcus aureus [5]; 0.125 µg/mL (≈ 0.342 µM) against Staphylococcus aureus [6]. The MIC against Staphylococcus aureus [7] came to 4 µg/mL (≈ 10.9 µM); with Staphylococcus aureus [8] it was 8 µg/mL (≈ 21.9 µM); in [9], 0.125 µg/mL (≈ 0.342 µM); in experiment [10], 8 µg/mL (≈ 21.9 µM); in experiment [11], 0.125 µg/mL (≈ 0.342 µM); in [12], 0.125 µg/mL (≈ 0.342 µM). The MIC was 8 µg/mL (≈ 21.9 µM) in experiment [13], 8 µg/mL (≈ 21.9 µM) in [14], 8 µg/mL (≈ 21.9 µM) in [15] and 0.125 µg/mL (≈ 0.342 µM) in experiment [16].

Consider `C=C[C@]1(C)C[C@@H](OC(=O)CSCc2csc(NC(=O)CN(CC)CC)n2)[C@]2(C)[C@H](C)CC[C@]3(CCC(=O)[C@H]32)[C@@H](C)[C@@H]1O`, for which the MIC turned out to be 1 µg/mL (≈ 1.61 µM) with Staphylococcus aureus [1]; 8 µg/mL (≈ 12.9 µM) against Staphylococcus aureus [2]; 1 µg/mL (≈ 1.61 µM) with Staphylococcus aureus [3]; 0.25 µg/mL (≈ 0.403 µM) in the experiment on Staphylococcus aureus [4]; 0.5 µg/mL (≈ 0.807 µM) with Staphylococcus aureus [5]; 0.25 µg/mL (≈ 0.403 µM) in the experiment on Staphylococcus aureus [6]. Besides, the MIC was 0.5 µg/mL (≈ 0.807 µM) against Staphylococcus aureus [7]; 2 µg/mL (≈ 3.23 µM) against Staphylococcus aureus [8]; 0.25 µg/mL (≈ 0.403 µM) in experiment [9]; 0.25 µg/mL (≈ 0.403 µM) in experiment [10]; 0.25 µg/mL (≈ 0.403 µM) in [11]; 0.25 µg/mL (≈ 0.403 µM) in experiment [12]. The MIC in experiment [13] turned out to be 0.25 µg/mL (≈ 0.403 µM); in [14] it was 2 µg/mL (≈ 3.23 µM); in experiment [15] it was 0.25 µg/mL (≈ 0.403 µM); in experiment [16], 0.25 µg/mL (≈ 0.403 µM).

Consider `C=C[C@]1(C)C[C@@H](OC(=O)CS[C@@H]2C[C@H]3CC[C@@H](C2)N3C)[C@]2(C)[C@H](C)CC[C@]3(CCC(=O)[C@H]32)[C@@H](C)[C@@H]1O` [RETAPAMULIN], for which the MIC against Staphylococcus aureus [17] worked out at 0.12 µg/mL (≈ 0.232 µM); in the experiment with Streptococcus pyogenes, 0.016 µg/mL (≈ 0.0309 µM).

Consider `C=C[C@]1(C)C[C@@H](OC(=O)CSCc2csc(NC(=O)CN3CCCCC3)n2)[C@]2(C)[C@H](C)CC[C@]3(CCC(=O)[C@H]32)[C@@H](C)[C@@H]1O`, for which the MIC in the experiment with Staphylococcus aureus [1] was determined as 0.125 µg/mL (≈ 0.198 µM); in the experiment on Staphylococcus aureus [2], 2 µg/mL (≈ 3.17 µM); against Staphylococcus aureus [3], 0.125 µg/mL (≈ 0.198 µM); against Staphylococcus aureus [4], 0.0625 µg/mL (≈ 0.0989 µM); with Staphylococcus aureus [5], 0.5 µg/mL (≈ 0.791 µM); with Staphylococcus aureus [6] it was 0.0625 µg/mL (≈ 0.0989 µM). For the same compound, the MIC against Staphylococcus aureus [7] turned out to be 0.25 µg/mL (≈ 0.396 µM); against Staphylococcus aureus [8] it was 0.25 µg/mL (≈ 0.396 µM); in experiment [9], 0.0625 µg/mL (≈ 0.0989 µM); in [10] it was 0.0625 µg/mL (≈ 0.0989 µM); in experiment [11], 0.125 µg/mL (≈ 0.198 µM); in experiment [12] it was 0.0625 µg/mL (≈ 0.0989 µM). The MIC in [13], in experiment [14], in [15] and in experiment [16] was 0.0625 µg/mL (≈ 0.0989 µM) each time. For the same compound, the Ratio (in experiment [18]; in experiment [19]; in experiment [20]; in experiment [21]; in the experiment with Staphylococcus aureus [22]; in the experiment on Staphylococcus aureus [23]) was 8 in each case. Also, the Ratio in the experiment on Staphylococcus aureus [24] and in the experiment with Staphylococcus aureus [25] was 8 each time.

`C=C[C@]1(C)C[C@@H](OC(=O)CSC(C)(C)CNC(=O)[C@H](N)C(C)C)[C@]2(C)[C@H](C)CC[C@]3(CCC(=O)[C@H]32)[C@@H](C)[C@@H]1O` [VALNEMULIN] returned an MIC in the experiment on Brachyspira pilosicoli of 0.03 µg/mL (≈ 0.0531 µM).
